# What was measured:
# [1] = single dose; 72 mg
# Protocol: This study includes a single dose and 14-day repeated dose neurotoxicity studies with intranasally administered esketamine in female rats 12 to 14 weeks of age. These studies were conducted to investigate whether single or repeated intranasal administrations of esketamine induced neurodegenerative changes in the rat brain. The study results were used to estimate an esketamine exposure-based safety margin compared with the maximum dose of esketamine administered intranasally to depressed adult patients in clinical trials.
# The vehicle- and the 36 and 54 mg-dosed groups consisted of 24 animals per group, while the 72 mg-dosed and positive control groups involved 30 animals per group. Four satellite animals were added to the esketamine HCl-dosed groups of main study animals for toxicokinetic (TK) purposes. In these animals the plasma exposure to esketamine was measured on the day of dosing at various time points up to and including 24 hours after the first instillation.
# adult female rats [2] = conditions: single intranasal dose; 200-gram rat
# adult female rats [3] = assay: Single-dose neuronal toxicity study (neuronal vacuolation), intranasal esketamine (label); conditions: rat, in vivo
# [4] = system: patients with treatment-resistant depression (TRD); assay: CGI-S (Example 7); type: in vivo, human
# Protocol: Overall illness severity was assessed on the Clinical Global Impression of Severity (CGI-S) scale (Guy, “ECDEU Assessment Manual for Psychopharmacology—Revised (DHEW Publ No ADM 76-338)”, Rockville, Md.: U.S. Department of Health, Education, and Welfare, Public Health Service, Alcohol, Drug Abuse, and Mental Health Administration, NIMH Psychopharmacology Research Branch, Division of Extramural Research Programs; 1976, pp 218-222). Participants assessed their severity of anxiety on the Generalized Anxiety Disorder 7-item (GADS-7) Scale (See, Tables 157 and 158). See, Spitzer, “A brief measure for assessing generalized anxiety disorder—the GAD-7”, Arch. Intern. Med., 2006, 166(10): 1092-1097.
# healthy subjects = assay: Cardiac electrophysiology (QTc) study; type: in vivo, human
# Protocol: The effect of SPRAVATO (84 mg nasal spray and 0.8 mg/kg esketamine intravenously infused over 40 minutes) on the QTc interval was evaluated in a randomized, double-blind, placebo-, and positive-controlled (moxifloxacin 400 mg), 4-period, crossover study in 60 healthy subjects.
# [5] = system: subjects with MDD at imminent risk for suicide; assay: MADRS total score, sustained response (Study […]2001); type: in vivo, human
# From the text: Primary efficacy variable/Primary Time point: Change from baseline (Day 1, predose) to Day 1, 4-hours postdose in MADRS total score. The MADRS consists of 10 items that cover all of the core depressive symptoms, with each item scoring from 0 (item is not present or is normal) to 6 (severe or continuous presence of the symptom). A higher score represents a more severe condition.
# The primary efficacy endpoint is the change in MADRS total score from baseline to Day 1: 4-hours postdose. MADRS total scores range from 0 to 60. […] As this is a phase 2a proof-of-concept study, statistical significance is based on a two-sided alpha level of 0.20. All p-values presented in this document are two-sided.
# Sustained response is defined as at least 50% reduction from baseline in MADRS total score with onset on Day 1: 4 hours postdose that is maintained through the end of the double-blind phase (Day 25). Four subjects in the esketamine 84 mg group and 2 subjects in the placebo group had sustained response throughout the double-blind phase.
# subjects with TRD [6] = conditions: post dose
# Protocol: (§1) The Clinician Administered Dissociative States Scale (CADSS) was measured prior to the start of each dose, at 40 minutes, and 1.5 hours postdose.
# subjects with TRD [7] = conditions: post dose; remark: listed apart in the source
# Protocol: as §1
# rat = assay: 2-year rat carcinogenicity study; type: in vivo; conditions: once-daily intranasal 4.5, 15 and 45 mg/kg/day; 2 years
# [8] = Period 1, esketamine 28 mg intranasal
# [9] = Period 1, esketamine 56 mg intranasal
# [10] = Period 1, esketamine 84 mg intranasal
# [11] = Period 2, esketamine 28 mg intranasal
# [12] = Period 2, esketamine 56 mg intranasal
# [13] = Period 2, esketamine 84 mg intranasal
# [14] = esketamine 84 mg minus placebo, ANCOVA LOCF
# [15] = esketamine 84 mg, LOCF, ITT, N = 35
# [16] = esketamine 84 mg, LOCF, ITT, N = 35, negative change = improvement
compound,measurement,setting,value
"CN[C@]1(c2ccccc2Cl)CCCCC1=O [esketamine, (S)-2-(2-chlorophenyl)-2-(methylamino)cyclohexanone]",AUC-based safety margin compared with the maximum 84 mg clinical dose,[1],~86 fold
same,Cmax-based safety margin compared with the maximum 84 mg clinical dose,[1],approximately 60 fold
same,Highest dose equivalent with no findings of neuronal vacuolation in the brain,adult female rats [2],45 mg/kg
same,"Safety margin to clinical exposure at the MRHD of 84 mg/day, AUC",adult female rats [3],1.8 times
same,"Safety margin to clinical exposure at the MRHD of 84 mg/day, Cmax",adult female rats [3],4.5 times
same,CGI-S Median (Range) at end point,[4]; [8],"4.0 (3, 5)"
same,CGI-S Median Change (Range),[4]; [8],"−1.0 (−2, 1)"
same,CGI-S Median (Range) at end point,[4]; [9],"4.0 (1, 5)"
same,CGI-S Median Change (Range),[4]; [9],"−1.0 (−3, 0)"
same,CGI-S Median (Range) at end point,[4]; [10],"4.0 (1, 6)"
same,CGI-S Median Change (Range),[4]; [10],"−0.5 (−4, 0)"
same,CGI-S Median (Range) at end point,[4]; [11],"4.0 (3, 5)"
same,CGI-S Median Change (Range),[4]; [11],"−1.0 (−1, 0)"
same,CGI-S Median (Range) at end point,[4]; [12],"5.0 (4, 6)"
same,CGI-S Median Change (Range),[4]; [12],"−1.0 (−2, 0)"
same,CGI-S Median (Range) at end point,[4]; [13],"4.0 (3, 5)"
same,CGI-S Median Change (Range),[4]; [13],"−1.0 (−2, 0)"
same,Increase in heart rate,healthy subjects; 84 mg nasal spray and 0.8 mg/kg intravenously over 40 minutes,> 10 bpm
same,QTc prolongation,healthy subjects; therapeutic dose,lack of clinically relevant QTc prolongation
same,MADRS: least-square mean difference from placebo,"[5]; 84 mg, Day 1, 4-hours postdose, ANCOVA",−5.3 (2.10)
same,"MADRS total score, change to Day 1 (DB): 4 H, Diff. of LS Means (SE)",[5]; [14],−5.3 (2.10)
same,"MADRS total score, change to Day 2 (DB), Diff. of LS Means (SE)",[5]; [14],−7.2 (2.85)
same,"MADRS total score, change to End Point (DB), Diff. of LS Means (SE)",[5]; [14],−4.5 (3.14)
same,"MADRS total score, Day 1 (DB): 4 H, Median (Range)",[5]; [15],23.0 (7; 48)
same,"MADRS total score, Day 2 (DB), Median (Range)",[5]; [15],18.0 (3; 42)
same,"MADRS total score, End Point (DB), Median (Range)",[5]; [15],8.0 (0; 44)
same,"MADRS total score, Change from Baseline to Day 1 (DB): 4 H, Median (Range)",[5]; [16],−14.0 (−32; 1)
same,"MADRS total score, Change from Baseline to Day 2 (DB), Median (Range)",[5]; [16],−19.0 (−41; 1)
same,"MADRS total score, Change from Baseline to End Point (DB), Median (Range)",[5]; [16],−25.0 (−46; 13)
same,"MADRS total score, Baseline (DB), Median (Range)","[5]; esketamine 84 mg, predose Day 1, ITT, N = 35",38.0 (27; 49)
same,Dissociative/perceptual change symptoms (CADSS) resolved by,subjects with TRD [6],≤ 1.5 h
same,Dissociative and perceptual change symptoms (CADSS) resolved by,subjects with TRD [7],≤ 1.5 h
same,Incidence of tumors,rat,did not increase the incidence of tumors
